Results on five compounds are retold here after US8349854B2, “Salts of 4-aniline quinazoline derivative” (priority 2007, dated 2013).

One series has as its target EGFR tyrosine kinases (Homo sapiens, UniProt P00533). Description: Inhibitory effect on EGFR tyrosine kinases (ELISA, Poly(Glu,Tyr) 4:1). In kind it is biochemical. The note with it: result in words. On the procedure:
The plate coated with EGFR tyrosine kinases reaction substrate Poly(Glu, Tyr) 4:1 was washed three times with T-PBS and dried in oven at the temperature of 37° C. Every well was added with the ATP solution diluted with reaction buffer, the compound to be tested with grading concentrations and the tyrosine kinases to be tested in sequence to initiate the reaction. The plate was incubated in a shaker for 1 hour at the temperature of 37° C., and then was washed three times with T-PBS (the phosphate buffer containing 0.05% of Tween with a pH of 7.4). Antibody PY99 was added and the reaction was kept on at 37° C. for 1 hour. The plate was washed three times with T-PBS, HRP labeled goat anti mouse IgG was then added and incubated at 37° C. for 1 hour. The colorimetric solution of OPD (o-phenylenediamine) was added and the mixture was reacted in dark at room temperature for 1-10 min. The reaction was terminated by the addition of 2M of H2SO4. The OD value at wavelength of 492 nm was measured using the VersaMax™ microplate reader (MDC company, USA). The inhibitory effect of the samples on EGFR tyrosine kinases was determined by the following formula: Inhibition %=[1−(OD Value of the compound to be tested −OD Value of the control without enzyme)/(OD Value of the negative control−OD Value of the control without enzyme)]×100%.

For series [1] the following is noted: SD rats, gavage 4 weeks, 20, 50, 100, 500 and 800 mg/(kg·day). On the procedure: Five test groups with the dose of 20, 50, 100, 500 and 800 mg/(kg·day) respectively and a solvent control group were set.
The nature of series [2]: Drug absorption in SD rat, intragastric administration (ig). The series is classed as in vivo. The settings on record: SD rat. The protocol: The blood samples were collected 0.5, 1.0, 1.5, 2.0, 3.0, 5.0, 7.0, 9.0, 12 and 24 hours after administration, which were then centrifugated respectively to obtain the plasma. The concentration of the drug in the plasma was determined by means of liquid chromatography/tandem mass spectrometer, and the concentration-time curve was obtained.

Series [3] concerns human epidermatoid squamous cancer cell A431. Description: Inhibition of proliferation of tumor cell lines (MTT), A431. The series is classed as cell-based. The note with it: 72 h, listed as hydrochloride. On the procedure:
(§1) A DMSO solvent control well and a blank well were set in the plate. […] The incubation was continued for 4 h, and 50 μL of triple-expansion solution (10% SDS-5% of isobutyl alcohol-0.01 mol/L of HCl) was added. The plate was placed in the incubator overnight. The OD value was measured by the microplate reader at wavelength of 570 nm.

In series [4] the test system is human breast cancer cell BT-474. Nature of the series: Inhibition of proliferation of tumor cell lines (MTT), BT-474. The series is classed as cell-based. The settings on record: BT-474, MTT, 72 h; listed as hydrochloride. On the procedure:
as §1

Series [5] relates to human ovarian cancer SKOV-3. Nature of the series: Anti-tumor effect on human ovarian cancer SKOV-3 transplanted to the BALB/cA nude rat. In kind it is in vivo. The settings on record: 5 mg/kg iv once on the first day; after 3 weeks. The protocol:
A tumor SKOV-3 in vigorous growth period was selected and incised into several bits of an even size of about 1.5 mm^3, which was inoculated subcutaneously to the right armpit of the BALB/cA nude rats using trocar under sterile condition. The diameters of the transplanted tumors were measured with a vernier caliper. The animals were grouped randomly when the tumors reached a size of 80-100 mm^3. The tested animals of the group receiving the compounds to be tested were administrated with the compounds by gavage through mouth once daily for 3 weeks continuously. The positive control drug MMC (Mitomycin) was administered by intravenous injection once on the first day with a dose of 5 mg/kg. The negative control group was administered with 0.5% CMC-Na (Carboxymethyl Cellulose Sodium) with a dose of 0.2 mL/per rat. The major axis (a) and the minor axis (b) of the tumors were measured twice every week and the rats were weighed at the same time. According to the formula V=ab^2/2, the tumor volume (mm^3) could be calculated, based on which the relative tumor volume (RTV) was determined (Formula: RTV=Vt/V0, wherein V0 represents the tumor volume measured at the grouping time (i.e. d0), and Vt represents the tumor volume measured each time). The relative tumor proliferation rate T/C (%) was chosen here to evaluate the anti-tumor activity, which can be calculated according to the following formula: T/C(%)=(TRTV/CRTV)×100%
TRTV: RTV of the group receiving the compounds to be tested; CRTV: RTV of negative control group

Setting [6] is: ig, dosage 21.68 (formula (I)), 23.42 (hydrochloride), 30 mg/kg (p-toluenesulfonate).

One may read the Cmax as the maximum level reached in the sampled fluid or tissue. The term Tmax denotes the time at which the peak concentration occurs. Broadly, the IC50 is the concentration that inhibits the measured activity by half. High values mean a need for much substance, low ones inhibition by little substance. As usually defined, the T/C is the ratio of treated to control.

As for “Tartrate of N-{4-[3-chloro-4-(3-fluoro-benzyloxy)phenylamino]-quinazolin-6-yl}-acrylamide”, the “inhibitory activity of EGFR tyrosine kinases” value (from here on “inhibitory activity”) against EGFR tyrosine kinases is “excellent inhibitory activity”. Also, in series [1], the food intake result is “normal food intake”; the “physical signs, appearance, behaviors, activities or shape of dejecta” value (“physical signs, appearance, behaviors” below) is listed as “no abnormality”; the “weight and weight growth of the rats” value is “basically similar to the control group with no statistical difference”.

With `C=CC(=O)Nc1ccc2ncnc(Nc3ccc(OCc4cccc(F)c4)c(Cl)c3)c2c1.Cl` [Hydrochloride, The hydrochloride of N-{4-[3-chloro-4-(3-fluoro-benzyloxy)phenyl-amino]-quinazolin-6-yl}-acrylamide], in series [2] (setting [6]), the AUC0-t turned out to be 1038 ng·h/mL, the Cmax turned out to be 289 ng/mL, the T1/2 is given as 1.27 h and the Tmax was determined as 2.25 h. Further, the “absolute bioavailability by ig” value in series [2] (revised by dosage, calculated by AUC0-t) was 9.30%. Further, half-maximal inhibition in series [3] (IC50) required 840 nM. The compound further showed an IC50 in series [4] of 460 nM. The “inhibitory activity” value against EGFR tyrosine kinases was “excellent inhibitory activity”. In series [1], the food intake entry is on record as “normal food intake” and the “physical signs, appearance, behaviors” value is reported as “no abnormality”.

As for `CO[C@@]12[C@H](COC(N)=O)C3=C(C(=O)C(C)=C(N)C3=O)N1C[C@@H]1N[C@@H]12` [MMC, Mitomycin, reference compound], in series [5], the RTV was 3.1 ± 0.5, the T/C is given as 32.0% and the “Volume of tumor V21” value was determined as 258 ± 77 mm^3.

As to `C=CC(=O)Nc1ccc2ncnc(Nc3ccc(OCc4cccc(F)c4)c(Cl)c3)c2c1.O=C(O)C(=O)O` [Oxalate, Oxalate of N-{4-[3-chloro-4-(3-fluoro-benzyloxy)phenylamino]-quinazolin-6-yl}-acrylamide], the “inhibitory activity” value against EGFR tyrosine kinases is “excellent inhibitory activity”. For the same compound, in series [1], the food intake result is reported as “normal food intake” and the “physical signs, appearance, behaviors” value is given as “no abnormality”.

With `C=CC(=O)Nc1ccc2ncnc(Nc3ccc(OCc4cccc(F)c4)c(Cl)c3)c2c1.CS(=O)(=O)O` [Methanesulfonate, Methanesulfonate of N-{4-[3-chloro-4-(3-fluoro-benzyloxy)phenylamino]-quinazolin-6-yl}-acrylamide], the “inhibitory activity” value against EGFR tyrosine kinases is on record as “excellent inhibitory activity”. Also, in series [1], the food intake entry is “normal food intake” and the “physical signs, appearance, behaviors” value is “no abnormality”.
